From PubChem BioAssay (NCI) come the findings set out here.

Test in all cases: NCI anticancer screen, dose series, 48 h
Experiment [1] has as its system KM12 colon.
Experiment [2] deals with PC-3 prostate.
Experiment [3] has as its system MCF7 breast.
The subject of experiment [4] is MDA-N.
For experiment [5], the system named is SNB-19 CNS.
The test system of experiment [6] is OVCAR-4 ovarian.
Experiment [7] concerns CCRF-CEM leukemia.
Experiment [8] has as its system HCT-116 colon.
Experiment [9] has as its system OVCAR-5 ovarian.
The subject of experiment [10] is SNB-75 CNS.
The subject of experiment [11] is SK-MEL-2 melanoma.
For experiment [12], the system named is MALME-3M melanoma.
Experiment [13] has as its system NCI-H522 lung.

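These data come from cells grown in 96-well plates and exposed to compound for 48 hours at five concentrations. TGI: total growth inhibition.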

In the case of `O=S(=O)(O)c1cc(Cl)c(O)c2ncc(Cl)cc12`, the TGI in [1], in experiment [2], in [3], in [4], in experiment [5] and in [6] was greater than 100 µM each time. Besides, the TGI in [7], in [8], in [9], in experiment [10] and in experiment [11] was greater than 100 µM in each case.
For the compound `c1ccc(COc2ccc(C[P+](c3ccccc3)(c3ccccc3)c3ccccc3)cc2)cc1`, the TGI in [1] came out at 1.66 µM; in [2] it was 3.07 µM; in experiment [3], 1.52 µM; in experiment [4], 5.86 µM; in [12], 1.82 µM; in experiment [5], 14.8 µM. Further, the TGI in experiment [6] worked out at 1.84 µM; in experiment [7], 7.28 µM; in [8], 1.68 µM; in [13] it was 1.61 µM; in experiment [9] it was 2.2 µM; in [10], 2.99 µM. This compound also showed a TGI in experiment [11] of 0.727 µM.
As for `COc1ccc2c(c1O)-c1c(OC)c(OC)cc3c1[C@H](C2)[N+](C)(C)CC3`, the TGI in [1], in experiment [2], in experiment [3], in [4], in experiment [12] and in experiment [5] was greater than 100 µM in each case. In addition, the TGI in experiment [6], in [7], in experiment [8], in experiment [13], in experiment [9] and in [10] was greater than 100 µM each time. This compound also showed a TGI in experiment [11] greater than 100 µM.
With `CCOC(=O)c1nc2c3c(ncn2n1)Oc1c(c(-c2ccccc2)nn1-c1ccccc1)C3c1ccc(OC)c(OC)c1` (stereo not drawn), the TGI was greater than 100 µM in experiment [2]; greater than 100 µM in experiment [3]; greater than 100 µM in experiment [4]; greater than 100 µM in [12]; 82.4 µM in experiment [5]; 30.4 µM in experiment [6]. The TGI was greater than 100 µM in experiment [7]; greater than 100 µM in experiment [8]; greater than 100 µM in experiment [13]; greater than 100 µM in [9]; 66.6 µM in experiment [10]; greater than 100 µM in [11].
On to `Cc1ncc([N+](=O)[O-])n1CCN(C)CCCCn1ccnc1[N+](=O)[O-]`, for which the TGI in experiment [1], in [2], in experiment [3], in experiment [4], in experiment [12] and in [5] was greater than 100 µM each time. For the same compound, the TGI in experiment [6], in experiment [7], in experiment [8], in experiment [9], in experiment [10] and in experiment [11] was greater than 100 µM in each case.
For `CC1C(c2ccc(N(C)C)cc2)c2cc3c(cc2OC1N1CCCC1)OCO3` (stereo not drawn), the TGI in [1] is greater than 100 µM; in [2], greater than 100 µM; in experiment [3] it was greater than 31.6 µM; in experiment [4] it was 46.9 µM; in experiment [12] it was greater than 100 µM; in experiment [5], greater than 100 µM. Besides, the TGI is greater than 100 µM in [6]; greater than 100 µM in [7]; greater than 100 µM in experiment [8]; greater than 82 µM in [13]; greater than 100 µM in [9]; greater than 73 µM in experiment [10]. Also, the TGI in [11] was greater than 82.6 µM.
As for `CCOC(=O)NNC(=O)NCCNC(=O)NNC(=O)OCC`, the TGI in experiment [1], in [2], in experiment [3], in experiment [4], in experiment [12] and in [5] was greater than 100 µM in each case. Further, the TGI in experiment [6], in experiment [7], in experiment [8], in experiment [13], in experiment [9] and in experiment [10] was greater than 100 µM throughout. The compound also registered a TGI in [11] greater than 100 µM.
`CSc1n[nH]c(N)c1C(=O)Nc1ccc(Cl)cc1`: the TGI in experiment [1], in [2], in experiment [3], in [4], in experiment [12] and in [5] was greater than 100 µM in each case. Besides, the TGI in experiment [6] was greater than 100 µM; in experiment [7] it was greater than 100 µM; in experiment [8] it was 56 µM; in experiment [13], greater than 100 µM; in experiment [9], greater than 100 µM; in [10], greater than 100 µM. Moreover, the TGI in experiment [11] was greater than 100 µM.
Consider `C[N+]1(C)CC=C(N2CCOCC2)CC1`, for which the TGI in experiment [1], in experiment [2], in experiment [3], in [4], in experiment [12] and in [5] was greater than 10 µM in each case. In addition, the TGI in experiment [6], in experiment [7], in [8], in [13], in [10] and in [11] was greater than 10 µM throughout.
For the compound `COC(=O)C1Cc2c(C)cccc2C1=O` (stereo not drawn), the TGI in experiment [1], in experiment [2], in [3], in experiment [4], in experiment [12] and in experiment [5] was greater than 100 µM throughout. The TGI in experiment [6], in [7], in [8], in experiment [13], in experiment [9] and in [10] was greater than 100 µM throughout. The compound further returned a TGI in experiment [11] greater than 100 µM.
On to `CCOC(=O)C1(Cc2ccc(C)cc2)Cc2ccc(C)cc2C1=O` (stereo not drawn), for which the TGI in [1] was greater than 72.3 µM; in experiment [2] it was greater than 100 µM; in [3] it was 28.3 µM; in experiment [4], 6.42 µM; in experiment [12], greater than 97.1 µM; in experiment [5] it was greater than 100 µM. Further, the TGI in experiment [6] was greater than 100 µM; in experiment [7], 64.1 µM; in experiment [8] it was greater than 60.2 µM; in experiment [13], 36.9 µM; in experiment [9], greater than 100 µM; in [10] it was greater than 100 µM. In [11], the TGI was determined as 32.9 µM.
